# Source: paper PMC6222781, “Structural Optimization of Foldamer-Dendrimer Conjugates as Multivalent Agents against the Toxic Effects of Amyloid Beta Oligomers” (Molecules : A Journal of Synthetic Chemistry and Natural …, 2018)
# Columns and labels:
# acute hippocampal slices = assay: Ex vivo MTT tissue viability test on acute hippocampal slices treated with Aβ oligomers after oxygen-glucose deprivation; assay type: cell-based, Wistar rats; conditions: 4 h, Aβ oligomers 10 µM alone, untreated slices as control, mean ± SD, N = 4
# Text: We have applied a rapid, reliable assay, which utilizes acute hippocampal slices for MTT measurements to test the short-term effect of toxic Aβ oligomers on the viability of the surviving cells in the tissue. Acute hippocampal brain slices can be maintained ex vivo only for a few hours, thus excluding the possibility of studying the long-term effects of neuroprotective compounds. Still, the combination of oxygen-glucose deprivation and treatment with Aβ oligomers makes this assay applicable on a short-term basis, which is otherwise impossible with convenient in vitro methods. The Aβ treatment combined with this short and mild oxygen-glucose deprivation provided a relevant ex vivo model for the aging brain and a standard MTT assay was used for the quantification of toxicity (Table S2). Treatment with Aβ oligomers in 10 µM concentration caused a significant decrease in tissue viability after 4 h (Figure 5, white column, 43.2 ± 1.6% of control). To test the neuroprotective effects of the compounds, slices were treated with Aβ in the presence of equimolar amounts of 1, 3–6, respectively. […]
# Toxicity measurements were carried out using freshly prepared slices (N = 2 × 10 for one case) of the brains of 10 ± 1-week-old Wistar rats (4 animals, thickness of the brain slices: 400 µm). […] After the treatment, brain slice viability was measured using a specific MTT assay. […]
# [1] = test system: SH-SY5Y neuroblastoma cells; assay type: cell-based, human; conditions: 24 h, Aβ oligomers 10 µM alone, mean ± SEM, N = 4–8
# Protocol: Real-time cell impedance measurement assay (xCELLigence) was utilized to test the effects of Aβ and the protective effect of the compounds 1, 3–5 on SH-SY5Y neuroblastoma cells. Cells were treated with Aβ oligomers in the concentration of 10 µM either alone or together with compounds 1, 3–5, which were applied in two different concentrations (5 or 10 μM). The cell index was monitored continuously for 48 h. Figure 6 represents the viability readouts after 24 h and 48 h (Table S3). Aβ caused a significant reduction in the viability after 24 h (red column, 85.1 ± 2.6% of control) reflecting the effects of an elongated treatment. […]
# Figure 6 Cell viability readouts based on impedance analysis after treatments at different time points: (A) 24 h (B) 48 h. […]
# Differentiated SH-SY5Y cells were grown in Dulbecco’s Modified Eagle’s Medium (DMEM) and F12-Ham’s culture medium at a 1:1 ratio supplemented with 10% (v/v) fetal bovine serum (FBS), 1% (v/v) L-glutamine, and 50 µg/mL gentamicin. […] Cells were cultured for 5–7 days and monitored every 15 min until the end of experiments. […] The resulting data was analyzed using real-time cell analyzer software (RTCA, Roche, Basel, Switzerland) and exported to Excel.
substance,measurement,setting,value
Aβ oligomers: oligomers of amyloid β (1–42) prepared from Ser26 depsipeptide iso-Aβ (1–42),"tissue viability, Aβ oligomers alone",acute hippocampal slices,43.2 ± 1.6 % of control
same,"viability, Aβ alone",[1],85.1 ± 2.6 % of control
